Columns and labels:
[1] = tested on: histamine-induced eye scratching behavior; experiment: Ocular pruritus inhibition activity to histamine-induced models; type: in vivo, guinea pig; conditions: for number of eye scratching times in comparison with the control (in words): histamine-induced guinea pig model, instilled at 0.1%; for Eye scratching behavior inhibition ratio / Number of eye scratching times: male Hartley guinea pigs, 0.1% (w/v) instilled twice, 10 μl per eye; for Eye scratching behavior inhibition ratio: 30 minutes after instillation of 1.0% histamine, versus control; for Number of eye scratching times: average for 30 minutes after instillation of 1.0% histamine, control 6.1
Description: Compound A was dissolved in a 5.0% Tween 80/physiological saline solution at a concentration of 0.1% (w/v), and Compound B was suspended in a 5.0% Tween 80/physiological saline solution at a concentration of 0.1% (w/v), whereby the respective test compound solutions were prepared.
Each test compound solution was instilled into both eyes of 5-week-old male Hartley guinea pigs in an amount of 10 μl per eye. At 15 minutes thereafter, each test compound solution of the same concentration was instilled again (twice in total). As a control, a 5.0% Tween 80/physiological saline solution was used.
After 15 minutes from the second instillation of each test compound solution, a physiological saline solution in which histamine was dissolved at 1.0% (w/v) was instilled into both eyes of the above guinea pigs in an amount of 10 μl per eye to induce eye scratching behavior.
(§1) The behavior of the guinea pigs after the instillation of histamine was videotaped, and the ocular pruritus was evaluated for each eye by counting the number of times of a series of behaviors of scratching the eye with the hind paws. In Table 1, the average of the number of eye scratching times for 30 minutes after the instillation of histamine and the average of the eye scratching behavior inhibition ratio are shown. Each group consisted of 8 eyes.
(§2) Eye scratching behavior inhibition ratio (%)=100−(number of eye scratching times for test compound)/(number of eye scratching times for control)×100

[2] = tested on: platelet activating factor-induced eye scratching behavior; experiment: Ocular pruritus inhibition activity to platelet activating factor-induced models; type: in vivo, guinea pig; conditions: for Eye scratching behavior inhibition ratio / Number of eye scratching times: male Hartley guinea pigs, 10 μl per eye; for Eye scratching behavior inhibition ratio: 30 minutes after instillation of 0.1% platelet activating factor, versus control; for Number of eye scratching times: average for 30 minutes after instillation of 0.1% platelet activating factor, control 7.1
Description: as §2
Platelet activating factor-induced ocular pruritus evaluation models were prepared in accordance with the published method of Kato et al. (J. Ocul. Pharmacol. Ther. 2003; 19: 315-324). Compound C was dissolved in ultrapure water at a concentration of 0.01% or 0.1% (w/v), and each of the resulting solutions was instilled into both eyes of 5-week-old male Hartley guinea pigs in an amount of 10 μl per eye. At 15 minutes thereafter, each solution of Compound C of the same concentration was instilled again (twice in total). As a control, ultrapure water was used.
After 15 minutes from the second instillation of the solution of Compound C, a physiological saline solution in which a platelet activating factor was dissolved at 0.1% (w/v) was instilled into both eyes of the above guinea pigs in an amount of 10 μl per eye to induce eye scratching behavior.
as §1, with “the platelet activating factor” for “histamine”, “2,” for “1,”

SMILES	number of eye scratching times in comparison with the control (in words) [1]	Eye scratching behavior inhibition ratio [1] [%]	Number of eye scratching times [1] [times]	Eye scratching behavior inhibition ratio ([2]; 0.01% (w/v) instilled twice) [%]	Number of eye scratching times ([2]; 0.01% (w/v) instilled twice) [times]	Eye scratching behavior inhibition ratio ([2]; 0.1% (w/v) instilled twice) [%]	Number of eye scratching times ([2]; 0.1% (w/v) instilled twice) [times]	number of eye scratching times in comparison with the control (in words) ([2]; platelet activating factor-induced guinea pig model, instilled at 0.01% or 0.1%)
Cl.Oc1ccc(-c2nc(-c3ccc(F)cc3)c(-c3ccncc3)[nH]2)cc1 [Compound A, 4-(4-fluorophenyl)-2-(4-hydroxyphenyl)-5-(4-pyridyl)-1H-imidazole hydrochloride]	significantly decreased	77.0	1.4	–	–	–	–	–
COc1nccc(-c2c(-c3ccc(F)cc3)ncn2[C@H]2CC[C@H](O)CC2)n1 [Compound B, trans-4-[4-(4-fluorophenyl)-5-(2-methoxy-4-pyrimidinyl)-1H-imidazole-1-yl]cyclohexanol]	significantly decreased	36.1	3.9	–	–	–	–	–
C[S+]([O-])c1ccc(-c2nc(-c3ccc(F)cc3)c(-c3ccncc3)[nH]2)cc1.Cl (centres unmarked) [Compound C, 4-(4-fluorophenyl)-2-(4-methylsulfinylphenyl)-5-(4-pyridyl)-1H-imidazole hydrochloride]	–	–	–	87.3	0.9	85.9	1.0	significantly decreased

Source: patent US20080119498A1, “Therapeutic Agent for Pruritus Comprising P38 Map Kinase Inhibitor as the Active Ingredient” (priority 2004, published 2008)
